Assay results taken from US20170016915A1, “SCREENING TARGETS AND COMPOSITIONS AND METHODS FOR TREATMENT OF CILIOPATHY DISORDERS” (Duke University, priority 2014, published 2017).

Legend:
[1] = test system: GLI2FL, GLI3FL, SUFU and GLI3R in T8-derived Ofd1^KO neurons; conditions: 10 μM SFN
Description: (§1) Transfected cells and mouse tissues were lysed in modified RIPA buffer [150 mM sodium chloride, 50 mM Tris-HCl, pH7.4, 1% nonidet P-40, 0.1% sodium deoxycholate, 1 mM EDTA] with 1× proteasome inhibitor (Roche) and centrifuged at 4° C. for 15 minutes. Protein concentration was measured by Lowry assay using the DC Protein Assay Kit (Bio-Rad) on a DU 530 Life Science UV/Vis Spectrophotometer (Beckman Coulter). Total protein in each sample was separated by SDS-PAGE on 4% to 15% Mini-PROTEAN TGX Precast Gel (Bio-Rad) with a Spectra Multicolor Broad Range Protein Ladder (Fermentas) and transferred to an Immun-Blot PVDF Membrane (Bio-Rad). […] Densitometric analysis was performed with Image Lab (Bio-Rad), Quantity One (Bio-Rad), or ImageJ 1.44p (NIH) software.
(§2) HEK-293 or HEK-293-FT cells and human dermal fibroblasts were grown in DMEM (Invitrogen) containing 10% FBS (Invitrogen) and 2 mM L-glutamine (Invitrogen), hTERT-RPE1 cells in DMEM and Ham's F-12 Nutrient 1:1 mixture (DMEM/F-12; Invitrogen) with 10% FBS and 2 mM L-glutamine.

IκBβ = conditions: BBS4-, BBS1-, or OFD-suppressant cells
Description: as §1, with “software. […]” for “software.”

β-catenin = conditions: cells depleted of BBS4, relative to vehicle-treated cells; 10 μM SFN
Description: as §1, with “software. […]” for “software.”

[2] = test system: bbs4, bbs1 and ofd1 morphant zebrafish embryos; assay: Convergent extension (CE) and somite defects in morphant zebrafish embryos, coinjection; type: in vivo; conditions: for rescue of defective CE phenotypes, somitic defects, and persistent her4 expression: coinjection
Description: (§3) Morpholinos against bbs1 ([NT] ID NO: 13), bbs4 ([NT] ID NO: 14), and ofd1 ([NT] ID NO: 15) were purchased from Gene Tools, LLC. Human RPN10, RPN13, and RPT6 mRNA were in vitro transcribed with a mMESSAGE mMACHINE SP6 Kit (Ambion). SFN was dissolved in DMSO (Sigma-Aldrich) at a stock concentration of 1 M and further diluted in water to 10 mM. The morpholino and mRNA or SFN were mixed, and a volume of 0.5 nl was microinjected.

[3] = test system: her4 expression (Notch target) in bbs4 morphant zebrafish embryos; assay: Whole-mount RNA in situ hybridization of her4 in morphant zebrafish; type: in vivo; conditions: bbs4 morphants, coinjection, 4.5 dpf
Description: as §3, with “microinjected. Zebrafish embryos were fixed overnight in 4% PFA at 4° C. Residual pigment was removed by bleaching with 3% H2O2/0.5% KOH.” for “microinjected.”

NF-κB signaling = conditions: TNF-α stimulated cells with pSuperBBS4, pSuperBBS1 or pSuperOFD1; SFN 6 hours
Description: as §2

PSMB5, PSMB6, and PSMB7 = conditions: upon treatment with sulforaphane (ref. 36); cited from earlier work

## C[S@@+]([O-])CCCCN=C=S [SFN, 1-isothiocyanato-4(R)-methylsulfinylbutane]
[1]
  GLI3R protein levels: reduced
  accumulation of GLI3FL, GLI2FL, and SUFU: ameliorated
IκBβ
  accumulation of GFP-tagged IκBβ: ameliorated
β-catenin
  β-catenin protein levels: reduction
[2]; bbs1 morphants
  rescue of defective CE phenotypes, somitic defects, and persistent her4 expression: robust rescue
[2]; coinjection with bbs4 morpholino, blind scoring at 9±1 ss
  bbs4 morphants with CE and somitic defects: significant reduction
[2]; ofd1 morphants
  rescue of defective CE phenotypes, somitic defects, and persistent her4 expression: robust rescue
[2]; zebrafish embryos, no morpholino
  phenotype after injection of the substance alone: did not give rise to any obvious phenotype
[3]
  ectopic expression of her4 in neural structures: ameliorated
NF-κB signaling
  NF-κB activity (3X-κB-L luciferase reporter): restored
PSMB5, PSMB6, and PSMB7
  expression levels of PSMB5, PSMB6, and PSMB7 and corresponding peptidase activities: increase
